# Measurements reported in patent publication US8809319B2, “Substituted 8-oxa-10,11-dihydroimidazo[2,3-a]bicyclo[3.2.1]oct-3-enes and use thereof as an insecticide” (priority 2009, dated 2014).
# Where two headings read alike, the source gives them in different places.
# Experiments:
# [1] = test system: Pseudaletia separata Walker; assay: Insecticidal activity against armyworms, leaf-dipping method; assay type: in vivo; conditions: for mortality at 500 µg/mL / LC50: Mythimna separata; for mortality at 500 µg/mL: read-out: Pseudaletia separata Walker Mortality rate (%, 500 mg L^−1)
# Source text: Second instar Pseudaletia separata Walker larvae were used as the subjects and the dipping method was employed for testing.
# Pseudaletia separata Walker, which is a very important lepidopterans pest of various grains, can be suitably used in various of applications, for example, in the study of toxicity, such as the stomach toxicity, contact poisoning, comprehensive and residual effects of insecticides, and other aspects of insect toxicology, as well as the screen test for new compounds. Pseudaletia separata Walker extermination activity was tested in accordance with a method reported in the literature.
# Operation procedure of the leaf-dipping method: Each sample was precisely weighed, and 2 mL of DMSO and 18 mL of water were added respectively; and then, three drops of the emulsion agent 2001 (procured from Shanghai Nongyaochang Co., Ltd.) were added to form the test liquid. A blank was also formulated by adding three drops of the 2201 emulsion agent to 2 mL of DMSO and […]. Fresh corn leaves were torn into small pieces and immersed for about five seconds in the liquid, then removed, air-dried, and placed in a 100-mL jar. About 20 2nd instar larvae were introduced into the jar. The jar was closed using white gauze and a rubber band, and the larvae were fed with corn soaked with the liquid continuously. The mortality rate of the larvae was checked after five days. The requisite temperature was 22° C. to 27° C., humidity 70% to 80%. There was no need to correct the mortality rates for each treatment if the blank mortality rate was 5% or less; however, if the control mortality rate was 5% to 20%, Abbott's correction should be used for the mortality rates for each treatment. Abbott's formula: Corrected mortality rate=[(treated mortality rate−control mortality rate)/(100−control mortality rate)×100].
# Aphis craccivora = assay: Insecticidal activity against aphids, dipping method; assay type: in vivo; conditions: for mortality at 500 µg/mL / LC50: Aphis craccivora; for mortality at 500 µg/mL: read-out: Aphis craccivora Mortality rate (%, 500 mg L^−1)
# Procedure: Aphids, which belong to the Homoptera and have piercing-sucking mouth parts, are a common pest for agricultural crops. Aphis craccivora was used as the subject, and a dipping method was employed for testing.
# Testing method: Each sample was precisely weighed, and 2 mL of DMSO and 18 mL of water were added respectively; then, three drops of the emulsion agent 200I were added to form a testing liquid; a blank was also prepared by adding three drops of emulsion agent 220I to 2 mL of DMSO and 18 mL of water. Broad bean leaves adhered by a certain number of insects were immersed in the testing liquid for three to five seconds, then removed and air-dried; the insects were moved into a clean container together with feed, and the container was placed in a dry, thermostatic recovery room. After 24 hours, the number of dead insects was checked.
# [2] = test system: Nilaparvata lugens resistant strain; assay: Insecticidal activity against Nilaparvata lugens, micro-drip method, resistant strain; assay type: in vivo; conditions: for Magnitude of resistance: resistant strain versus susceptible strain; for Relative toxicity / LD50 (ng/pest): resistant strain; for Relative toxicity: relative to imidacloprid; for LD50 (ng/pest): topical micro-drip, 48 hours
# Procedure: (§1) Nilaparvata lugens, which belongs to the Homoptera and has piercing-sucking mouth parts, is a common pest for agricultural crops. Nilaparvata lugens was used as the subject, and the micro-drip measurement method reported by Nagata was employed for testing.
# (§2) Operation procedure: Unmated winged females two to three days after eclosion were selected as the test subjects; the compounds were diluted in acetone to a series of concentrations. The insects were paralyzed by carbon dioxide, and the liquid (0.08 μL) was dripped onto the pronotum of the insects using a manual micro-dripper (Burkard Manufacturing Co., Ltd., Rickmansworth, UK). Each of the concentrations was used to treat about 30 insects in triplicate. Acetone was used as the control. The treated adult insects were cultured on rice seedlings grown without soil in an incubator (20×20×10 cm), where the temperature was controlled at 25±1° C. with 16/8 hours of light and dark cycle. The results were checked after 48 hours, and the LD50 was calculated using a standard probability analysis method.
# [3] = test system: Nilaparvata lugens susceptible strain; assay: Insecticidal activity against Nilaparvata lugens, micro-drip method, susceptible strain; assay type: in vivo; conditions: for Magnitude of resistance / Relative toxicity / LD50 (ng/pest): susceptible strain; for Relative toxicity: relative to imidacloprid; for LD50 (ng/pest): topical micro-drip, 48 hours
# Procedure: as §1, §2
# [4] = test system: nicotinic acetylcholine receptors of Periplaneta americana; assay: Mechanism of action, electrophysiological testing on cockroach nAChRs; assay type: cell-based
# Source text: (§3) The compound (1a) was separately subjected to electrophysiological testing and isotope marker substitution testing.
# [5] = test system: N1 α 1/β 2 receptors expressed by the oocytes; assay: Mechanism of action, electrophysiological testing on receptors expressed by oocytes; assay type: cell-based
# Source text: as §3
# [6] = foliar, 120 h, read-out: Pseudaletia separata Walker LC50 (mmol L^−1)
# [7] = 24 h, read-out: Aphis craccivora LC50 (mmol L^−1)
Structure (SMILES),"mortality at 500 µg/mL ([1]; foliar, 120 h)",mortality at 500 µg/mL (Aphis craccivora; 24 h),Magnitude of resistance [2],Relative toxicity [2],LD50 (ng/pest) [2],Magnitude of resistance [3],Relative toxicity [3],LD50 (ng/pest) [3],also measured
"O=[N+]([O-])C1=C2N(Cc3ccc(Cl)cc3)CCN2C2CCCC1O2 (stereo not drawn) [Compound 2d, 10-(4-chlorobenzyl)-4-nitro-9-oxa-11,12-dihydroimidazo-[2,3-a]-bicyclo-[3,3,1]-non-3-ene]",–,–,–,–,–,–,–,–,"Pseudaletia separata Walker Mortality rate (%, 500 mg L^−1) ([1]; in vivo): 0%; Aphis craccivora Mortality rate (%, 500 mg L^−1) (Aphis craccivora; in vivo): 38.9%"
"O=[N+]([O-])C1=C2N(Cc3cnc(Cl)s3)CCN2[C@H]2CCC[C@@H]1O2 [Compound 2b, 10-((2-chlorothiazol-5-yl)methyl)-4-nitro-9-oxa-11,12-dihydroimidazo-[2,3-a]-bicyclo-[3,3,1]-non-3-ene]",0%,98.2%,–,–,–,–,–,–,–
"O=[N+]([O-])C1=C2N(Cc3ccc(Cl)nc3)CCN2[C@H]2CCC[C@@H]1O2 [Compound 2a, 10-((6-chloropyrid-3-yl)methyl)-4-nitro-9-oxa-11,12-dihydroimidazo-[2,3-a]-bicyclo-[3,3,1]-non-3-ene]",0%,87.3%,4.58,1.17,18.9795 ± 2.3501 ng/pest,1.00,0.32,4.1440 ± 0.6136 ng/pest,–
"O=[N+]([O-])C1=C2N(Cc3ccc(Cl)cc3)CCN2[C@@H]2CC[C@H]1O2 [Compound 1d, 9-(4-chloro-benzyl)-4-nitro-8-oxa-10,11-dihydroimidazo-[2,3-a]-bicyclo-[3,2,1]-oct-3-ene]",0%,95.7%,–,–,–,–,–,–,–
"O=[N+]([O-])C1=C2N(Cc3ccc(Cl)nc3)CCN2[C@@H]2CC[C@H]1O2 [Compound 1a, 9-((6-chloropyrid-3-yl)methyl)-4-nitro-8-oxa-10,11-dihydroimidazo-[2,3-a]-bicyclo-[3,2,1]-oct-3-ene]",100%,100%,6.64,50.00,0.4925 ± 0.0811 ng/pest,1.00,1.77,0.0742 ± 0.0106 ng/pest,"LC50 [1, 6]: 12.5 mg/L; LC50 ([1]; read-out: LC50 against Pseudaletia separata Walker): 12.5 mg/L; LC50 (Aphis craccivora; [7]): 1.52 mg/L; LC50 (Aphis craccivora; read-out: LC50 against aphids): 1.52 mg/L; activity against imidacloprid-resistant Niloparvata lugens versus imidacloprid [2]: 50 times; mode of action on nicotinic acetylcholine receptor (nAChRs) ([4]; conclusion from electrophysiological and isotope marker substitution testing): antagonist; agonistic action on nicotinic acetylcholine receptors of Periplaneta americana ([4]; electrophysiological testing): no agonistic action; inhibition of the agonist response to acetylcholine ([4]; receptor preparation not given): can inhibit the agonist response to acetylcholine; activity against susceptible Niloparvata lugens versus imidacloprid [3]: generally the same as that of imidacloprid; agonistic action on N1 α 1/β 2 receptors expressed by the oocytes [5]: no agonistic action"
"O=[N+]([O-])C1=C2N(Cc3ccccc3)CCN2[C@@H]2CC[C@H]1O2 [Compound 1c, 9-benzyl-4-nitro-8-oxa-10,11-dihydroimidazo-[2,3-a]-bicyclo-[3,2,1]-oct-3-ene]",0%,13.6%,–,–,–,–,–,–,–
"O=[N+]([O-])C1=C2N(Cc3cnc(Cl)s3)CCN2[C@@H]2CC[C@H]1O2 [Compound 1b, 9-((2-chlorothiazol-5-yl)methyl)-4-nitro-8-oxa-10,11-dihydroimidazo-[2,3-a]-bicyclo-[3,2,1]-oct-3-ene]",100%,100%,–,–,–,–,–,–,–
"O=[N+]([O-])C1=C2N(Cc3ccccc3)CCN2[C@H]2CCC[C@@H]1O2 [Compound 2c, 10-benzyl-4-nitro-9-oxa-11,12-dihydroimidazo-[2,3-a]-bicyclo-[3,3,1]-non-3-ene]",0%,–,–,–,–,–,–,–,"mortality at 500 µg/mL (Aphis craccivora; 500 mg L^−1, dipping, after 24 hours): 55.6%"
"O=[N+]([O-])NC1=NCCN1Cc1ccc(Cl)nc1 [Imidacloprid, reference compound]",100%,100%,168.40,1.00,22.1614 ± 3.7522 ng/pest,1.00,1.00,0.1316 ± 0.0154 ng/pest,"LC50 [1, 6]: 38.7 mg/L; LC50 (Aphis craccivora; [7]): 8.93 mg/L"
